Source: US20250074896A1, “ARYLTETRAHYDROPYRIDAZINE DERIVATIVE OR SALT THEREOF AND INSECTICIDAL AGENT CONTAINING THE COMPOUND AND METHOD FOR USING SAME” (NIHON NOHYAKU CO., LTD., priority 2021, published 2025)
Read-outs that look alike come from different tables or passages of the source.

Tests used:
Format in all cases: in vivo
[1] = system: Diamondback moth (Plutella xylostella); assay: Insecticidal test on diamondback moth (dip treatment of Chinese cabbage seedlings with laid eggs); details: 144 h, read-out: insecticidal efficacy (corrected mortality rate) against diamondback moth
Description: Insecticidal Test on Diamondback moth (Plutella xylostella)
Adults of diamondback moth were released onto Chinese cabbage seedlings and allowed to lay eggs thereon. At 2 days after the release of the adults, the Chinese cabbage seedlings with laid eggs were dipped for about 30 seconds in agrochemical dispersions diluted to 50 ppm or 500 ppm, each of which contained a different compound represented by the general formula (1) of the present invention as an active ingredient. After air-dried, the seedlings were kept in a thermostatic chamber at 25° C. At 6 days after the dip treatment, the number of surviving larvae per plot was counted, the corrected mortality rate was calculated according to the formula shown below, and the insecticidal efficacy was evaluated according to the criteria shown below. This test was conducted in triplicate using 10 adults of diamondback moth per plot.
(§1) • A: the mortality rate is 100%. • B: the mortality rate is 90 to 99%. • C: the mortality rate is 80 to 89%. • D: the mortality rate is 50 to 79%. • E: the mortality rate is 0 to 49%.

[2] = system: Small Brown Planthopper (Laodelphax striatellus); assay: Insecticidal test on small brown planthopper (dipped rice seedlings, 3rd-instar larvae); details: 192 h, rice seedlings dipped 30 seconds, 8 days after inoculation, read-out: insecticidal efficacy (corrected mortality rate) against small brown planthopper
Description: as §1
Insecticidal Test on Small Brown Planthopper (Laodelphax striatellus)
The compounds represented by the general formula (1) of the present invention or salts thereof were separately dispersed in water and diluted to 50 ppm or 500 ppm. Rice plant seedlings (variety: Nihonbare) were dipped in the agrochemical dispersions for 30 seconds. After air-dried, each seedling was put into a separate glass test tube and inoculated with ten 3rd-instar larvae of small brown planthopper, and then the glass test tubes were capped with cotton plugs. At 8 days after the inoculation, the numbers of surviving larvae and dead larvae were counted, the corrected mortality rate was calculated according to the formula shown below, and the insecticidal efficacy was evaluated according to the criteria of Test Example 1.

[3] = system: Western Flower Thrips (Frankliniella occidentalis); assay: Insecticidal test on western flower thrips (kidney bean leaf pieces, hatched larvae); details: 96 h, read-out: insecticidal efficacy (corrected mortality rate) against western flower thrips
Description: as §1
Insecticidal Test on Western Flower Thrips (Frankliniella occidentalis)
Female adults of western flower thrips were inoculated onto kidney bean leaf pieces, and allowed to lay eggs thereon for one day, then the female adults were removed. After 3 days, the hatched larvae on the leaf pieces were counted, and then the agrochemical dispersions diluted to 50 ppm or 500 ppm, each of which contained the compound described in Tables 1 to 6 as an active ingredient were applied. The number of larvae of the species surviving at 4 days after the treatment was counted, and the corrected mortality rate was calculated according to the formula shown below, and the insecticidal efficacy was evaluated according to the criteria of Test Example 1. This test was conducted in duplicate.

[4] = dip about 30 seconds, 6 days after treatment, 25° C.
[5] = 500 ppm, dip about 30 seconds, 6 days after treatment, 25° C.
[6] = 500 ppm, 4 days after the treatment

CC(C)(C)OC(=O)N1C(=O)C(C(=O)Nc2ccc(F)cc2)=C(S)CN1c1ccc(C(F)(F)F)nc1 [5-7, tert-butyl 5-((4-fluorophenyl)carbamoyl)-4-mercapto-6-oxo-2-(6-(trifluoromethyl)pyridin-3-yl)-2,3-dihydropyridazine-1(6H)-carboxylate]
100%: mortality at 50 ppm [1, 4] | mortality at 500 ppm [1, 5] | mortality at 50 ppm [2] | mortality at 500 ppm [2] | mortality at 50 ppm ([3]; 4 days after the treatment) | mortality at 500 ppm [3, 6]

O=C(Nc1ccc(C(F)(F)F)cc1)C1=C(O)CN(c2ccc(C(F)(F)F)nc2)NC1=O [1-85, N-(4-trifluoromethylphenyl)-5-hydroxy-3-oxo-1-(6-(trifluoromethyl)pyridin-3-yl)-1,2,3,6-tetrahydropyridazine-4-carboxamide]
100%: mortality at 500 ppm [1] | mortality at 500 ppm [3]

CCNC(=O)N1C(=O)C(C(=O)Nc2ccc(F)cc2)=C(O)CN1c1ccc(C(F)(F)F)nc1 [3-22, N^1-ethyl-N^5-(4-fluorophenyl)-4-hydroxy-6-oxo-2-(6-(trifluoromethyl)pyridin-3-yl)-2,3-dihydropyridazine-1,5(6H)-dicarboxamide]
100%: mortality at 500 ppm [1, 5] | mortality at 500 ppm [2] | mortality at 50 ppm ([3]; 4 days after the treatment) | mortality at 500 ppm [3, 6]

CSC1=C(C(=O)Nc2ccc(F)cc2)C(=O)N(C(=O)OC(C)(C)C)N(c2ccc(C(F)(F)F)nc2)C1 [5-11, tert-butyl 5-((4-fluorophenyl)carbamoyl)-4-methylsulfanyl-6-oxo-2-(6-(trifluoromethyl)pyridin-3-yl)-2,3-dihydropyridazine-1(6H)-carboxylate]
100%: mortality at 50 ppm [1, 4] | mortality at 500 ppm [1, 5] | mortality at 50 ppm [2] | mortality at 500 ppm [2] | mortality at 50 ppm ([3]; 4 days after the treatment) | mortality at 500 ppm [3, 6]

CC(C)(C)OC(=O)N1C(=O)C(C(=S)Nc2ccc(F)cc2)=C(O)CN1c1ccc(C(F)(F)F)nc1 [4-34, tert-butyl 5-((4-fluorophenyl)carbamothioyl)-4-hydroxy-6-oxo-2-(6-(trifluoromethyl)pyridin-3-yl)-2,3-dihydropyridazine-1(6H)-carboxylate]
100%: mortality at 50 ppm [1, 4] | mortality at 500 ppm [1, 5] | mortality at 50 ppm [2] | mortality at 500 ppm [2] | mortality at 50 ppm ([3]; 4 days after the treatment) | mortality at 500 ppm [3, 6]

O=C(Nc1ccc(F)cc1)C1=C(S)CN(c2ccc(C(F)(F)F)nc2)NC1=O [5-2, N-(4-fluorophenyl)-5-mercapto-3-oxo-1-(6-(trifluoromethyl)pyridin-3-yl)-1,2,3,6-tetrahydropyridazine-4-carboxamide]
100%: mortality at 50 ppm [1, 4] | mortality at 500 ppm [1, 5] | mortality at 50 ppm [2] | mortality at 500 ppm [2] | mortality at 50 ppm ([3]; 4 days after the treatment) | mortality at 500 ppm [3, 6]

CNC(=S)N1C(=O)C(C(=O)Nc2ccc(F)cc2)=C(O)CN1c1ccc(C(F)(F)F)nc1 [3-362, N-(4-fluorophenyl)-5-hydroxy-2-(methylcarbamothioyl)-3-oxo-1-(6-(trifluoromethyl)pyridin-3-yl)-1,2,3,6-tetrahydropyridazine-4-carboxamide]
100%: mortality at 50 ppm [1, 4] | mortality at 500 ppm [1, 5] | mortality at 50 ppm ([3]; 4 days after the treatment) | mortality at 500 ppm [3, 6]

N#Cc1ccc(N2CC(O)=C(C(=O)Nc3ccc(F)cc3)C(=S)N2)cn1 [6-6, 1-(6-cyanopyridin-3-yl)-N-(4-fluorophenyl)-5-hydroxy-3-thioxo-1,2,3,6-tetrahydropyridazine-4-carboxamide]
100%: mortality at 500 ppm [1, 5] | mortality at 500 ppm [2] | mortality at 500 ppm [3, 6]

COC(=O)N1C(=O)C(C(=O)Nc2ccn(C)n2)=C(O)CN1c1ccc(C#N)cc1 [3-437, methyl 2-(4-cyanophenyl)-4-hydroxy-5-((1-methyl-1H-pyrazol-3-yl)carbamoyl)-6-oxo-2,3-dihydropyridazine-1(6H)-carboxylate]
100%: mortality at 50 ppm [2] | mortality at 500 ppm [2] | mortality at 50 ppm ([3]; 4 days after the treatment) | mortality at 500 ppm [3, 6]

CCCNC(=O)N1C(=O)C(C(=O)Nc2ccn(C)n2)=C(O)CN1c1ccc(C#N)cc1 [3-563, N^5-(1-methyl-1H-pyrazol-3-yl) N^1-propyl 4-hydroxy-6-oxo-2-(4-cyanophenyl)-2,3-dihydropyridazine-1,5(6H)-dicarboxamide]
100%: mortality at 50 ppm [2] | mortality at 500 ppm [2]

CC(C)(C)OC(=O)N1C(=O)C(C(=O)Nc2ccc(F)cc2)=C(O)CN1c1ccc(C(F)(F)F)nc1 [3-308, tert-butyl 5-((4-fluorophenyl)carbamoyl)-4-hydroxy-6-oxo-2-(6-(trifluoromethyl)pyridin-3-yl)-2,3-dihydropyridazine-1(6H)-carboxylate]
100%: mortality at 50 ppm [1, 4] | mortality at 500 ppm [1, 5] | mortality at 50 ppm [2] | mortality at 500 ppm [2] | mortality at 50 ppm ([3]; 4 days after the treatment) | mortality at 500 ppm [3, 6]
